Measured values: patent EP4616854A1, “TREATMENT OF MUSCLE SARCOPENIA” (Molius Saglik Teknolojileri Anonim Sirketi, priority 2024, dated 2025)
Entries after “also recorded” stand apart in the source; their conditions may differ. Like-named read-outs stand apart in the source and are kept apart here. Where a SMILES comes first, the peptide text is derived from it. The star is where a group is joined. Cbz = O=C(OCc1ccccc1)*

Key:
C2C12 myoblasts = test: Differentiation of C2C12 myoblasts to myotubes under drug treatment, without ceramide; format: cell-based, mouse; details: for ability to facilitate myotube differentiation without the presence of ceramide: C2C12 cells not treated with C2-ceramide, Fig. 15
Description: The C2C12 cells (C2C12 mouse C3H muscle myoblast purchased from Sigma) were maintained in modified Eagle's medium (DMEM) with 10 % fetal bovine serum (FBS) and 1 % penicillin/streptomycin (P/S) solution in a humidified incubator with 5 % CO2 at 37 °C. […] […] Then, the medium was changed twice, at two-day intervals, with a differentiation medium (DMEM with 2% FBS and 1% P/S) with drug candidates to differentiate myoblasts into myotubes. […] Cell viability was measured spectrophotometrically by Cell Counting kit-8. The expression level of target proteins (ANXA2, CLMP, Cyc1, and SDHB), myogenic markers (MyoG and MyH3) and α-Tubulin (internal control) were detected using Western blots. All experiments were performed with 3 replicates.

[1] = test system: C2-ceramide treated C2C12 cell line; test: In vitro sarcopenia model (Example 1): myotube phenotype and MyH3 immunofluorescence; format: cell-based, mouse; details: for MyH3 intensity compared to the control group: mean brightness of MyH3 staining, Fig. 5B
Description: (§1) The C2C12 cells (C2C12 mouse C3H muscle myoblast purchased from Sigma) were maintained in modified Eagle's medium (DMEM) with 10 % fetal bovine serum (FBS) and 1 % penicillin/streptomycin (P/S) solution in a humidified incubator with 5 % CO2 at 37 °C. 40 µM C2-ceramide was used for developing an in vitro model of sarcopenia in the C2C12 cell line, i.e., in vitro sarcopenia model. One day after 300×10^3 cells were seeded per well in a 6-well plate, N-acetyl-D-sphingosine (C2-ceramide) and the drug candidates (dissolved in DMSO) were administered in the maintenance condition (DMEM with 10 % FBS and 1 % P/S) for two days. Then, the medium was changed twice, at two-day intervals, with a differentiation medium (DMEM with 2% FBS and 1% P/S) with drug candidates to differentiate myoblasts into myotubes. Furthermore, siRNAs for Anxa2 and Clmp and overexpression plasmids for Cyc1 and Sdhb were transfected into the cells to examine the effect of the target proteins on the in vitro sarcopenia model. Cell viability was measured spectrophotometrically by Cell Counting kit-8. The expression level of target proteins (ANXA2, CLMP, Cyc1, and SDHB), myogenic markers (MyoG and MyH3) and α-Tubulin (internal control) were detected using Western blots. All experiments were performed with 3 replicates.
The cells were, once again, washed 3 times in PBS and then permeabilized in 0.1 % TritonX-100 for 15 min at room temperature. The cells were then incubated for 1 h in 2 % bovine serum albumin (BSA) solution followed by overnight incubation in anti-Myosin/MyH3 diluted in 0.1 % BSA at 4 °C. Primary antibody solution was washed away with PBS, then incubated in fluorescent dye-labelled secondary antibody diluted in 0.1 % BSA for 45 min at room temperature protected from light. Finally, the samples were washed 3 times with 1xPBS-T and mounted with DAPI mount putted cover glass on the cells.
The cell brightness was measured by ImageJ software (NIH). For each experiment condition, three different areas were photographed with same area size (5038848 by ImageJ), the mean brightness of each image was obtained for statistical analysis. The t test was used to check the statistical differences between any two experiment conditions.

[2] = test system: C2-ceramide treated C2C12 cell line; test: In vitro sarcopenia model (Example 1): Western blot of target proteins and myogenic markers; format: cell-based, mouse
Description: as §1
The cells were washed with PBS and lysed with CelLytic M (C2978, Sigma-Aldrich) lysis buffer containing protease inhibitors. The cell lysates were centrifuged at 12 000 rpm for 5 min and supernatants were collected. A protein assay solution (Bio-Rad) was used for the determination of protein concentration. The absorbance of the proteins was measured spectrophotometrically at 595 nm by microplate reader (Hidex Sense Beta Plus). Protein electrophoresis was performed using Mini-PROTEAN® TGXTM Precast Gels (Bio-Rad) and the separated proteins were transferred to a Trans-Blot Turbo Mini 0.2 um PVDF Transfer Packs membrane (Bio-Rad) by using Trans-Blot® TurboTM Transfer System (Bio-Rad). The membrane was blocked with 5 % skim milk for 30 min at 4 °C with gentle rocking. It was immunoblotted with primary antibodies against MyH3, MyoG, ANXA2, CLMP, Cyc1, and SDHB, as well as α-Tubulin, as an internal control, overnight at 4 °C with gentle rocking. Goat anti-Rabbit HRP or goat anti-mouse IgG-HRP was used as secondary antibody. Reaction with secondary antibody proceeded for 30 min at 4 °C with gentle rocking.

[3] = Cell viability assay (MTT); details: mouse, c2c12 cells
Description: The effects of the drugs on the C2C12 cell viability were tested by MTT (Thiazolyl Blue Tetrazolium Bromide) assay. 1×10^4 cells were seeded per well in a 96-well plate in 100 µL growth media. After one day of cell seeding, the cells were treated with different concentrations of the drugs dissolved in 0.1 % DMSO and 100 µL of the media for one day. After the treatment period, 5 mg/ml MTT (M2128, Sigma-Aldrich) solution in PBS (10 µL) was added to each well. After one hour, the MTT solution and all media were removed from the wells. 100 µl of DMSO was added and mixed to dissolve the formazan crystals. Cell viability was analysed by measuring the absorbance of the dissolved formazan at a wavelength of 570 nm with a microplate reader (Hidex Sense Beta Plus).

[4] = test system: C2-ceramide treated C2C12 cell line; test: In vitro sarcopenia model (Example 2): Western blot of target genes and myogenic markers; format: cell-based, mouse
From the text: C2-ceramide ([…], Sigma Aldrich) was used for inducing sarcopenia in the C2C12 cell line. […] Then, the medium was changed twice, at two-day intervals, with a differentiation medium (DMEM with 2% FBS and 1% P/S) to differentiate myoblasts into myotubes. Because C2-ceramide may affect mitochondrial activity in muscle cells, another cell model was created without introducing ceramide. After completion of myotube differentiation, cells were harvested for western blot analysis. […] The cell lysates were centrifuged at 12.000 rpm for 10 min and supernatants were collected. Protein Assay Dye Reagent (5000006, Bio-Rad) was used for the determination of protein concentration. The absorbance of the proteins was measured spectrophotometrically at 595 nm by a microplate reader (Hidex Sense Beta Plus). […] The membrane was blocked with 5 % skim milk for 30 min at 4 °C with gentle rocking. After blocking, the membrane was treated with primary antibodies: anti-AGL (ab133720, Abcam, UK) anti-PDHX (HPA038484, Human Protein Atlas, Sweden), anti-Myogenin (ab124800, Abcam), anti-Myosin/MyH3 (ab124205, Abcam), anti-Beta actin (ab8227, Abam) as a loading control overnight at 4 °C on a rocking platform. After the treatment of primary antibodies, the membrane was washed three times with TBS-T buffer ([…]-7500-100, Medicago). Then, Goat anti-Rabbit IgG-HRP (ab205718, Abcam) was treated as the secondary antibody for 30 min at 4 °C with gentle rocking.

ubiquitinated proteins = details: mice, Sakai et al. [39]; cited from earlier work
[5] = selected non-toxic concentration of drug candidate, Fig. 11
[6] = 40 µM ceramide plus drug candidate at selected concentration
[7] = 5 µM, in vitro sarcopenia model
[8] = drug plus ceramide (sarcopenic cells), concentration not given
[9] = 2.5 µM, in vitro sarcopenia model
[10] = 20 µM, in vitro sarcopenia model
[11] = 40 µM ceramide alone versus control, 4 days of differentiation

## CCCCCCCCCC(=O)NC(CN1CCOCC1)C(O)c1ccccc1 (racemic) [DL-PDMP]
C2C12 myoblasts; [5]
  differentiation of myoblasts to myotubes: highly differentiated
[1]; [6]
  effect on myotubes (phenotypic change): Only treatment with withaferin-A improved the myotubes

## OCCCNc1cc(-c2ccnc(Nc3cccc(Cl)c3)n2)ccn1 [CGP-60474]
C2C12 myoblasts; [5]
  differentiation of myoblasts to myotubes: highly differentiated
[1]; [6]
  effect on myotubes (phenotypic change): Only treatment with withaferin-A improved the myotubes

## Nc1[nH]nc2nnc(-c3c(-c4ccccc4)nn4ccccc34)cc12 [FR-180204]
C2C12 myoblasts
  ability to facilitate myotube differentiation without the presence of ceramide: exhibited the ability to facilitate myotube differentiation
  ability to improve the myotube fusion in healthy muscle myoblasts: ability to improve the myotube fusion
[1]; [6]
  effect on myotubes (phenotypic change): promising effect in enhancing myotube cells
[2]; [7]
  Cyc1 expression: significantly increased
  MyH3 expression: significantly increased
  MyoG expression: significantly increased
[2]; [8]
  expression level of CYC1: significantly increase
  expression level of MyH3: significantly increase
  expression level of MyoG: significantly increase

## CC(C)C[C@@H](C=O)NC(=O)[C@H](CC(C)C)NC(=O)[C@H](CC(C)C)NC(=O)OCc1ccccc1 [MG-132] (Cbz-Leu-Leu-Leu-aldehyde)
[3]
  MNTC at 24 h: 25 nM
[4]; sarcopenic cells
  expression levels of MyH3: significantly increase
  expression levels of MyoG: significantly increase
[4]; sarcopenic cells, compared to the in vitro sarcopenia model
  expression of myogenic markers: increased
[4]; selected non-toxic optimal dose, in vitro sarcopenia model
  expression of AGL: enhanced; also recorded: significantly increase
Ubiquitinated proteins
  expression levels of ubiquitinated proteins in atrophic muscle cells: downregulation

## Cc1ccc(CNc2ncnc3ccc(-c4ccc(CO)o4)cc23)o1 [ML-167]
C2C12 myoblasts
  ability to facilitate myotube differentiation without the presence of ceramide: exhibited the ability to facilitate myotube differentiation
  ability to improve the myotube fusion in healthy muscle myoblasts: ability to improve the myotube fusion
[1]; [6]
  effect on myotubes (phenotypic change): promising effect in enhancing myotube cells
[2]; [9]
  Cyc1 expression: notable upregulation
  MyH3 expression: notable upregulation
  MyoG expression: notable upregulation
[2]; [7]
  Cyc1 expression: notable upregulation
  MyH3 expression: notable upregulation
  MyoG expression: notable upregulation
[2]; [8]
  expression level of CYC1: significantly increase
  expression level of MyH3: significantly increase
  expression level of MyoG: significantly increase

## O=C1c2c(O)ccc(O)c2C(=O)c2c(NCCNCCO)ccc(NCCNCCO)c21 [Mitoxantrone]
C2C12 myoblasts; [5]
  differentiation of myoblasts to myotubes: less differentiated

## Cc1ccc([N+](=O)[O-])cc1S(=O)(=O)N(C)/N=C/c1cnc2ccc(Br)cn12 [PIK-75]
C2C12 myoblasts; [5]
  differentiation of myoblasts to myotubes: highly differentiated
[1]; [6]
  effect on myotubes (phenotypic change): Only treatment with withaferin-A improved the myotubes

## CC1=C(CO)C(=O)OC(C(C)C2CCC3C4CC5OC56C(O)C=CC(=O)C6(C)C4CCC23C)C1 (centres unmarked) [Withaferin-A, withaferin-A]
[3]
  MNTC at 24 h: 50 nM
C2C12 myoblasts; [5]
  differentiation of myoblasts to myotubes: highly differentiated
[1]; [6]
  effect on myotubes (phenotypic change): improved the myotubes similarly to the control sample
[1]
  MyH3 intensity compared to the control group: no statistical difference
[2]; [8]
  expression level of CYC1: activating effect
  expression level of MyH3: increase; also recorded: expressed as much as control samples
  expression level of MyoG: increase
[2]; drug plus ceramide, concentration not given
  expression level of ANXA2: inhibitory effect; also recorded: decreased

## COC[C@H]1OC(=O)c2coc3c2[C@@]1(C)C1=C(C3=O)[C@@H]2CCC(=O)[C@@]2(C)C[C@H]1OC(C)=O [Wortmannin]
C2C12 myoblasts
  differentiation of myoblasts to myotubes: moderately differentiated
[1]
  effect on myotubes (phenotypic change): Only treatment with withaferin-A improved the myotubes

## CN(C)CCOC(c1ccc(Cl)cc1)c1ccccn1 (centres unmarked) [carbinoxamine]
[1]; [6]
  effect on myotubes (phenotypic change): promising effect in enhancing myotube cells
[2]; [10]
  CYC1 expression: large improvement
  MyH3 expression: increase
  MyoG expression: increase
[2]; [8]
  expression level of CYC1: increase
  expression level of MyH3: increase
  expression level of MyoG: increase

## CCCCCCCCCCCCC/C=C/[C@@H](O)[C@H](CO)NC(C)=O [ceramide, N-acetyl-D-sphingosine]
[1]; 40 µM ceramide alone, after 4 days of differentiation
  myotube formation: less myotubes were formed
[1]
  MyH3 intensity compared to the control group: significantly deceased; also recorded: significantly decreased
[2]; [11]
  expression level of MyH3: decreased
  expression level of MyoG: decreased
[2]; ceramide alone versus control
  expression level of ANXA2: increased

## CC(C)(Oc1ccc(Cl)cc1)C(=O)O [clofibric-acid, clofibric acid]
[3]
  MNTC at 24 h: 5000 nM

## CC(=O)c1c(C)c2cnc(Nc3ccc(N4CCNCC4)cn3)nc2n(C2CCCC2)c1=O [palbociclib]
[3]
  MNTC at 24 h: 5000 nM

## Cc1c(C)c2c(c(C)c1O)CCC(C)(COc1ccc(CC3SC(=O)NC3=O)cc1)O2 (centres unmarked) [troglitazone]
[3]
  MNTC at 24 h: 500 nM
